Laboratory results reported in PMC11299522 (Journal of medicinal chemistry, 2023).

Experiments:
[1] = tested on: wild-type (WT) HEK293 cells; assay: Pink Flamindo cAMP assay control in wild-type HEK293 cells lacking μORs; assay type: cell-based; settings: compound 1 μM, AUC analysis, n = 3
μOR = settings: cited from earlier work

| Molecule | effect on cAMP accumulation in the absence of the hμOR [1] | EC100 (μOR) |
| --- | --- | --- |
| C=C(C)[C@@H]1CCC(C)=C[C@H]1c1c(O)cc(CCCCC)cc1O [JGC1, (1′R,2′R)-5′-Methyl-4-pentyl-2′-(prop-1-en-2-yl)-1′,2′,3′,4′-tetrahydro-[1,1′-biphenyl]-2,6-diol] | do not impact cAMP accumulation | – |
| [D-Ala,[2] N-MePhe,[4] Gly-ol]-enkephalin [DAMGO] | – | 250 nM |
